In patent US20230357189A1, “MODIFIED FLUOROQUINOLONES AND USES THEREOF” (Technion Research & Development Foundation Limited, priority 2021, published 2023):
≈ marks a conversion by molar mass, not a printed value.

Columns and labels:
Escherichia coli 25922 = assay: Antibacterial activity, MIC by double-microdilution method; assay type: cell-based; conditions: Table 2; Escherichia coli 25922
[1] = tested on: Escherichia coli R477-100; assay: as above; assay type: cell-based; conditions: for Gram-negative MIC a: Table 2, without DTT; for Gram-negative MIC a / Gram-negative MIC, DTT 10 mM / Gram-negative MIC, DTT 0 mM / Gram-negative MIC, DTT 2 mM: Escherichia coli R477-100; for Gram-negative MIC, DTT 0 mM / Gram-negative MIC, DTT 2 mM: Table 3; for improvement of MIC in the presence of DTT: 10 mM DTT vs without DTT, Gram-negative E. coli R477-100
[2] = tested on: Staphylococcus Epidermidis; assay: as above; assay type: cell-based; conditions: Table 2
Bacillus Subtilis = assay: as above; assay type: cell-based; conditions: Bacillus Subtilis; for Gram-positive MIC d: Table 2; for Gram-positive MIC, DTT 0 mM / Gram-positive MIC, DTT 2 mM / Gram-positive MIC, DTT 10 mM: Table 3
[3] = tested on: supercoiled (+) pHOT-1 plasmid DNA; assay: DNA cleavage assay (gel electrophoresis); assay type: biochemical; conditions: for DNase activity (cleavage of supercoiled plasmid, form I to form II): absence of adjuvants, HEPES buffer (50 mM, pH 7.4), 5 hours
Experimental: Removal of Ligands Prior to Electrophoresis was performed when more than 100 μM of Cu(II)-ligand or Co(III) ligand (at any concentration) complexes were employed that is, for DNA cleavage assays that were performed in the absence of any adjuvants. An Amberlyst® 15 (Sigma Aldrich) ion-exchange resin was prepared according to the reported literature [Hettich et al. J. Am. Chem. Soc. 1997, 119 (24), 5638-5647] and stored at −20° C. Before use, 0.5 gram of the exchanger was mixed with 250 μL of water. After stopping the DNA-cleavage reaction by addition of EDTA (54 mM, 15 minutes incubation at 37° C.), 10 μL of the exchanger suspension was added, vortexed, and incubated at 37° C. for 15 minutes before centrifugation and electrophoresis.
DNA cleavage activity of the tested Complexes towards supercoiled (+) pHOT-1 plasmid DNA (TopoGEN) was monitored by gel electrophoresis. In a typical experiment, plasmid DNA (200 ng, […]) in HEPES buffer (50 mM, pH 7.4) was mixed with different concentrations of a tested metal complex in the presence or absence of ascorbic acid (0.32 mM). All stock solutions of buffers and of the metal complexes were prepared using HPLC grade water (ChromAR®). Molecular biology reagent grade water (Sigma) was added up to a total reaction volume of 30 μL before incubation for a given time. For the ascorbic acid assays, the reaction was quenched immediately after incubation with EDTA (54 mM). For analysis, 10 μL of loading buffer (40% sucrose, 100 mM Tris-HCl (pH 7.5), 1 mM EDTA, 0.5 mg·mL^−1 bromophenol blue) was added to the incubated solution and loaded onto an agarose (SeaKem LE) gel [1% in TAE×1 buffer (40 mM Tris, 20 mM acetic acid, 1 mM EDTA)]. Electrophoresis was carried out at 60 V for 2 hours. Gels were stained with 1 μg·mL^−1 ethidium bromide for 30 minutes and de-stained in TAE×1 buffer. DNA bands were visualized with medium-range ultraviolet light using Bio-Rad Gel Doc XR+ imaging system. The quantity of different DNA forms (I or II) was estimated using ImageJ software.
Chem. 2015, 2015 (28), 4722-4730; Kashiba-Iwatsuki et al. FEBS Lett. 1996, 389 (2), 149-15].
The copper complex of compound 2 (2-Cu(II)) was used as the positive control in these assays.

SMILES	Gram-negative MIC b (Escherichia coli 25922) [µg/mL]	Gram-negative MIC a [1] [µg/mL]	Gram-positive MIC c [2] [µg/mL]	Gram-positive MIC d (Bacillus Subtilis) [µg/mL]	DNase activity at micromolar concentrations ([3]; FIG. 32: 0.2 μg DNA over 2 hours (Co(III)-cyclen, 4-Co(III)), 0.6 μg DNA over 10 hours (23-Co(III)))	Gram-negative MIC, DTT 10 mM [1] [µg/mL]	Gram-negative MIC, DTT 0 mM [1] [µg/mL]	Gram-negative MIC, DTT 2 mM [1] [µg/mL]	Gram-positive MIC, DTT 0 mM (Bacillus Subtilis) [µg/mL]	Gram-positive MIC, DTT 2 mM (Bacillus Subtilis) [µg/mL]	Gram-positive MIC, DTT 10 mM (Bacillus Subtilis) [µg/mL]	improvement of MIC in the presence of DTT [1]	DNase activity (cleavage of supercoiled plasmid, form I to form II) [3]	MIC ([1]; E. coli R477-100, metal-free compound) [µg/mL]
O.O=C(O)c1cn(C2CC2)c2cc(N3CCN(CCCCCCCCN4CCNCCNCCNCC4)CC3)c(F)cc2c1=O.[Co+3].[OH-] [3-Co(III)]	6	12	12 to 24	12										
O.O=C(O)c1cn(C2CC2)c2cc(N3CCN(Cc4ccc(CN5CCNCCNCCNCC5)cc4)CC3)c(F)cc2c1=O.[Co+3].[OH-] [4-Co(III)]	6	12	6	6	strong DNA binding but no DNase activity									
O.O=C(O)c1cn(C2CC2)c2cc(N3CCN(CCCCCCCN4CCNCCNCCNCC4)CC3)c(F)cc2c1=O.[Co+3].[OH-] [2-Co(III)]	6	12	24	12 to 24										
N=C(N)NCCN1CCNCCNCCN(CCc2ccc(CN3CCN(c4cc5c(cc4F)c(=O)c(C(=O)O)cn5C4CC4)CC3)cc2)CC1 [Compound 20]	24	24	24	12		24	24	12	12	6 to 12	12			
O.O=C(O)c1cn(C2CC2)c2cc(N3CCN(CCCCCCN4CCNCCNCCNCC4)CC3)c(F)cc2c1=O.[Co+3].[OH-] [1-Co(III)]	12	12	24	12										
[Cl][Cu][Cl] [CuCl2, reference compound]	>384	>384	>384	>384								no change whatsoever		
NCCN1CCNCCNCCN(CCCCc2ccc(CN3CCN(c4cc5c(cc4F)c(=O)c(C(=O)O)cn5C4CC4)CC3)cc2)CC1 [Compound 26]	12	12	6	6		12	12	6	6	6	6			
N=C(N)NCCN1CCNCCNCCN(Cc2ccc(CN3CCN(c4cc5c(cc4F)c(=O)c(C(=O)O)cn5C4CC4)CC3)cc2)CC1 [Compound 19]	12	12	6	6		12	12	12	6	6 to 12	6		significant DNase activity	
N=C(N)NCCN1CCNCCNCCN(CCCc2ccc(CN3CCN(c4cc5c(cc4F)c(=O)c(C(=O)O)cn5C4CC4)CC3)cc2)CC1 [Compound 21]	12	12	6	6		6	12	6	12	12	6			
NCCN1CCNCCNCCN(Cc2ccc(CN3CCN(c4cc5c(cc4F)c(=O)c(C(=O)O)cn5C4CC4)CC3)cc2)CC1 [Compound 23]	24	24	12	6		12	24	12	6	6	3		significant DNase activity	24 (≈ 37 µM)
NCCN1CCNCCNCCN(Cc2ccc(CN3CCN(c4cc5c(cc4F)c(=O)c(C(=O)[O-])cn5C4CC4)CC3)cc2)CC1.[Cu+2] [23-Cu(II)]	24	24	12	12		3	24	6	12	6	3	significant improvement in antibacterial activity	significant hydrolytic DNase activity	
O.O=C(O)c1cn(C2CC2)c2cc(N3CCN(CCCCCCCCN4CCNCCNCCNCC4)CC3)c(F)cc2c1=O.[Cu+2] [3-Cu(II)]	6	12	6	6									only very limited activity	
O=C(O)c1cn(C2CC2)c2cc(N3CCN(CCCCCCCCN4CCNCCNCCNCC4)CC3)c(F)cc2c1=O [Compound 3]	12	24 to 48	6	6										
